Assay results taken from US7183252B2, “Indole peptidomimetics as thrombin receptor antagonists” (Ortho-McNeil Pharmaceutical, Inc., priority 1999, dated 2007).
Read-outs that look alike come from different tables or passages of the source.

Legend:
[1] = biological target: T1, thrombin receptor (PAR-1) (Homo sapiens, UniProt P25116); experiment: In vitro thrombin receptor binding assay (CHRF membranes); conditions: tritiated 721-40 radioligand, read-out: Bndg IC50 (Thrombin receptor binding)
T1 construct: CHRF membranes (Jones, Biochim. Biophys. Acta 1992, 1136, 272) are thawed from −70° C; endogenous in cells; host or cells: CHRF cell membranes
T1 sequence (P25116 22-425): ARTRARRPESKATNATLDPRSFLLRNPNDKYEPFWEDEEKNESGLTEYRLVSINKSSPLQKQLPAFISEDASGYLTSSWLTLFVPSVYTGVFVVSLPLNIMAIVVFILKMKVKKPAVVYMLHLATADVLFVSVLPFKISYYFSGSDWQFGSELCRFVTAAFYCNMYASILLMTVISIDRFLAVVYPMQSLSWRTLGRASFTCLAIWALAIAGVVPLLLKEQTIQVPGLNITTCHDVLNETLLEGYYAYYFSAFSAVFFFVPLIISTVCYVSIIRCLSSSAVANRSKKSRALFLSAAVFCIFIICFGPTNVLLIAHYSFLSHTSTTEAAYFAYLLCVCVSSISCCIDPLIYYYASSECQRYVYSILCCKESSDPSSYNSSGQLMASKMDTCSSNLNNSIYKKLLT
Procedure, shortened: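 CHRF cell membranes incubated 30 min with tritiated peptide agonist 721–40 and compound at 3.7 μg/mL final (0.6% DMSO) in HEPES/MgCl2/BSA buffer. Nonspecific binding defined with unlabeled 721–40; bound radioactivity counted after filtration onto PEI-treated filters.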

gel-filtered platelets = experiment: In vitro inhibition of thrombin-induced gel-filtered platelet aggregation; type: cell-based; conditions: human gel-filtered platelets, agonist thrombin 50 μL of 1 unit/mL, read-out: Thrmb IC50 (Thrombin-induced aggregation of gel-filtered platelets)
Procedure, shortened: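 Gel-filtered (Sepharose 2B) human platelets from citrated PRP, 2×10^7 per sample, in Tyrode's buffer pH 7.4 with BSA and added calcium, preincubated with test compound. Aggregation induced by thrombin (50 μL of 1 unit/mL) and followed as light transmission over 3 min. Inhibition is taken relative to control-treated platelets.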

SMILES	IC50 [1] [nM]	IC50 (gel-filtered platelets; Platelet) [nM]	IC50 (gel-filtered platelets) [nM]
C=CCOC(=O)[C@H](CCCN)NC(=O)[C@H](Cc1ccc(F)c(F)c1)NC(=O)Nc1ccc2c(CN3CCCC3)cn(Cc3c(Cl)cccc3Cl)c2c1 [Compound 93]	500	740	
CC(=O)NCCC[C@H](NC(=O)[C@H](Cc1ccc(F)c(F)c1)NC(=O)Nc1ccc2c(CN3CCCC3)cn(Cc3c(Cl)cccc3Cl)c2c1)C(=O)NCc1ccccc1 [Compound 94]	810	10000	
CC(=N)NCCC[C@H](NC(=O)[C@H](Cc1ccc(F)c(F)c1)NC(=O)Nc1ccc2c(CN3CCCC3)cn(Cc3c(Cl)cccc3Cl)c2c1)C(=O)NCc1ccccc1 [Compound 95]	370	410	
NCCC[C@H](NC(=O)[C@H](Cc1cccc(F)c1)NC(=O)Nc1ccc2c(CN3CCCC3)cn(Cc3c(Cl)cccc3Cl)c2c1)C(=O)NC1Cc2ccccc2C1 [Compound 96]	2800	1000	
C=CCN(C)Cc1cn(Cc2c(Cl)cccc2Cl)c2cc(NC(=O)N[C@@H](Cc3cccc(F)c3)C(=O)N[C@@H](CCCN)C(=O)NC3Cc4ccccc4C3)ccc12 [Compound 97]	1700	18800	
NCCC[C@H](NC(=O)[C@H](Cc1ccc(F)c(F)c1)NC(=O)Nc1ccc2c(CN3CCCC3)cn(Cc3c(Cl)cccc3Cl)c2c1)C(=O)NCc1ccncc1 [Compound 98]	2300	1800	
NCCC[C@H](NC(=O)[C@H](Cc1ccc(Cl)cc1)NC(=O)Nc1ccc2c(CN3CCCC3)cn(Cc3c(Cl)cccc3Cl)c2c1)C(=O)NCc1ccccc1Cl [Compound 99]	1400	740	
CN(C)CCC[C@H](NC(=O)[C@H](Cc1ccc(F)c(F)c1)NC(=O)Nc1ccc2c(CN3CCCC3)cn(Cc3c(Cl)cccc3Cl)c2c1)C(=O)NCc1ccccc1 [Compound 100]	1300	600	
NC[C@H](NC(=O)[C@H](Cc1ccc(F)c(F)c1)NC(=O)Nc1ccc2c(CN3CCCC3)cn(Cc3c(Cl)cccc3Cl)c2c1)C(=O)NCc1ccccc1 [Compound 101]	920	410	
NCC[C@H](NC(=O)[C@H](Cc1ccc(F)c(F)c1)NC(=O)Nc1ccc2c(CN3CCCC3)cn(Cc3c(Cl)cccc3Cl)c2c1)C(=O)NCc1ccccc1 [Compound 102, Benzenepropanamide, N-[(1S)-3-amino-1-[[(phenylmethyl)amino]carbonyl]propyl]-α-[[[[1-[(2,6-dichlorophenyl)methyl]-3-(1-pyrrolidinylmethyl)-1H-indol-6-yl]amino]carbonyl]amino]-3,4-difluoro-, (αS)-]	500	160	
NC(=O)CC[C@H](NC(=O)[C@H](Cc1ccc(F)c(F)c1)NC(=O)Nc1ccc2c(CN3CCCC3)cn(Cc3c(Cl)cccc3Cl)c2c1)C(=O)NCc1ccccc1 [Compound 103]	1200	540	
CSCC[C@H](NC(=O)[C@H](Cc1ccc(F)c(F)c1)NC(=O)Nc1ccc2c(CN3CCCC3)cn(Cc3c(Cl)cccc3Cl)c2c1)C(=O)NCc1ccccc1 [Compound 104]	11200	530	
O=C(Nc1ccc2c(CN3CCCC3)cn(Cc3c(Cl)cccc3Cl)c2c1)N[C@@H](Cc1ccc(F)c(F)c1)C(=O)N[C@@H](Cc1ccncc1)C(=O)NCc1ccccc1 [Compound 105]	7500	640	
Nc1ccc(C[C@H](NC(=O)[C@H](Cc2ccc(F)c(F)c2)NC(=O)Nc2ccc3c(CN4CCCC4)cn(Cc4c(Cl)cccc4Cl)c3c2)C(=O)NCc2ccccc2)cc1 [Compound 106]	3300	1100	
N=C(N)NCCC[C@H](NC(=O)[C@@H]1CCCN1C(=O)Nc1ccc2c(CN3CCCC3)cn(Cc3c(Cl)cccc3Cl)c2c1)C(=O)NCc1ccccc1 [Compound 107]	8000	1800	
N=C(N)NCCC[C@H](NC(=O)CCNC(=O)[C@H](Cc1ccc(F)c(F)c1)NC(=O)Nc1ccc2c(CN3CCCC3)cn(Cc3c(Cl)cccc3Cl)c2c1)C(=O)NCc1ccccc1 [Compound 108]	2600	3700	
NCCC[C@H](NC(=O)[C@H](Cc1ccc(F)c(F)c1)NC(=O)Nc1ccc2c(CN3CCCC3)cn(Cc3c(Cl)cccc3Cl)c2c1)C(=O)NCCc1ccncc1 [Compound 109]	610	840	
CCN(Cc1ccncc1)C(=O)[C@H](CCCN)NC(=O)[C@H](Cc1ccc(F)c(F)c1)NC(=O)Nc1ccc2c(CN3CCCC3)cn(Cc3c(Cl)cccc3Cl)c2c1 [Compound 110]	2900	3700	
CN(Cc1ccccc1)C(=O)[C@H](CCCN)NC(=O)[C@H](Cc1ccc(F)c(F)c1)NC(=O)Nc1ccc2c(CN3CCCC3)cn(Cc3c(Cl)cccc3Cl)c2c1 [Compound 111]	1900	3200	

SMILES	IC50 [1] [nM]	IC50 (gel-filtered platelets; Platelet) [nM]	IC50 (gel-filtered platelets) [nM]
NCCC[C@H](NC(=O)[C@H](Cc1ccc(F)c(F)c1)NC(=O)Nc1ccc2c(CN3CCCC3)cn(Cc3c(Cl)cccc3Cl)c2c1)C(=O)NCc1ccc(Cl)c(Cl)c1 [Compound 112]	2000	930	
NCCC[C@H](NC(=O)[C@H](Cc1ccc(F)c(F)c1)NC(=O)Nc1ccc2c(CN3CCCC3)cn(Cc3c(Cl)cccc3Cl)c2c1)C(=O)NCc1cccs1 [Compound 113]	850	720	
CN1CCN(C(=O)[C@H](CCCN)NC(=O)[C@H](Cc2ccc(F)c(F)c2)NC(=O)Nc2ccc3c(CN4CCCC4)cn(Cc4c(Cl)cccc4Cl)c3c2)CC1 [Compound 114]	260	2400	
NCCC[C@H](NC(=O)[C@H](Cc1ccc(F)c(F)c1)NC(=O)Nc1ccc2c(CN3CCCC3)cn(Cc3c(Cl)cccc3Cl)c2c1)C(=O)N1CCCCC1 [Compound 115]	370	2700	
NCCC[C@H](NC(=O)[C@H](Cc1ccc(F)c(F)c1)NC(=O)Nc1ccc2c(CN3CCCC3)cn(Cc3c(Cl)cccc3Cl)c2c1)C(=O)NCc1cccnc1 [Compound 116]	410	1100	
NCCC[C@H](NC(=O)[C@H](Cc1ccc(F)c(F)c1)NC(=O)Nc1ccc2c(CN3CCCC3)cn(Cc3c(Cl)cccc3Cl)c2c1)C(=O)NCc1ccccn1 [Compound 117]	1000	4100	
CC(=N)NCC[C@H](NC(=O)[C@H](Cc1ccc(F)c(F)c1)NC(=O)Nc1ccc2c(CN3CCCC3)cn(Cc3c(Cl)cccc3Cl)c2c1)C(=O)NCc1ccccc1 [Compound 118]	430	280	
CN(Cc1cn(Cc2c(Cl)cccc2Cl)c2cc(NC(=O)N[C@@H](Cc3ccc(Cl)cc3)C(=O)N[C@@H](CCCN)C(=O)NCCc3ccccc3Cl)ccc12)C1CCCC1 [Compound 119]	6200	3200	
CN(Cc1cn(Cc2c(Cl)cccc2Cl)c2cc(NC(=O)N[C@@H](Cc3ccc(Cl)cc3)C(=O)N[C@@H](CCCN)C(=O)NC3Cc4ccccc4C3)ccc12)CC1OCCO1 [Compound 122]	10500	3500	
Cn1cnc(CCNC(=O)[C@H](CCCN)NC(=O)[C@H](Cc2ccc(F)c(F)c2)NC(=O)Nc2ccc3c(CN4CCCC4)cn(Cc4c(Cl)cccc4Cl)c3c2)c1 [Compound 124]	1200		440
NCCC[C@H](NC(=O)[C@H](Cc1ccc(F)c(F)c1)NC(=O)Nc1ccc2c(CN3CCCC3)cn(Cc3c(Cl)cccc3Cl)c2c1)C(=O)NC1CCCC1 [Compound 125]	660	430	
CN(C)CCNC(=O)[C@H](CCCN)NC(=O)[C@H](Cc1ccc(F)c(F)c1)NC(=O)Nc1ccc2c(CN3CCCC3)cn(Cc3c(Cl)cccc3Cl)c2c1 [Compound 126]	1500	460	
NCCC[C@H](NC(=O)[C@H](Cc1ccc(F)c(F)c1)NC(=O)Nc1ccc2c(CN3CCCC3)cn(Cc3c(Cl)cccc3Cl)c2c1)C(=O)Nc1ccccc1 [Compound 127]	2400	930	
NCC[C@H](NC(=O)[C@H](CCc1ccccc1)NC(=O)Nc1ccc2c(CN3CCCC3)cn(Cc3c(Cl)cccc3Cl)c2c1)C(=O)NCc1ccccc1 [Compound 128]	3400	18800	
NCC[C@H](NC(=O)[C@H](Cc1ccc2ccccc2c1)NC(=O)Nc1ccc2c(CN3CCCC3)cn(Cc3c(Cl)cccc3Cl)c2c1)C(=O)NCc1ccccc1 [Compound 129]	2500	860	
NCC[C@H](NC(=O)[C@H](Cc1cccnc1)NC(=O)Nc1ccc2c(CN3CCCC3)cn(Cc3c(Cl)cccc3Cl)c2c1)C(=O)NCc1ccccc1 [Compound 130]	4800	27800	
NCC[C@H](NC(=O)[C@H](Cc1cccs1)NC(=O)Nc1ccc2c(CN3CCCC3)cn(Cc3c(Cl)cccc3Cl)c2c1)C(=O)NCc1ccccc1 [Compound 131]	1900	940	
NCC[C@H](NC(=O)[C@H](Cc1cscn1)NC(=O)Nc1ccc2c(CN3CCCC3)cn(Cc3c(Cl)cccc3Cl)c2c1)C(=O)NCc1ccccc1 [Compound 132]	4200	22000	
NCCNC(=O)[C@H](Cc1ccccc1)NC(=O)[C@H](Cc1ccc(Cl)cc1)NC(=O)Nc1ccc2c(CN3CCCC3)cn(Cc3c(Cl)cccc3Cl)c2c1 [Compound 133]	1500	860	
